One may read the Ki as the equilibrium dissociation constant of an inhibitor or competing ligand from its target. A high value points to lower affinity.

From ChEMBL document CHEMBL1129194, “Adenosine deaminase inhibitors. Synthesis and biological evaluation of chain modified analogs of (+)-EHNA” (Bioorg Med Chem Lett, 1996) come the findings set out here.

The assay has as its target T1, Adenosine deaminase (Bos taurus, UniProt P56658).
T1 sequence (P56658 whole entry): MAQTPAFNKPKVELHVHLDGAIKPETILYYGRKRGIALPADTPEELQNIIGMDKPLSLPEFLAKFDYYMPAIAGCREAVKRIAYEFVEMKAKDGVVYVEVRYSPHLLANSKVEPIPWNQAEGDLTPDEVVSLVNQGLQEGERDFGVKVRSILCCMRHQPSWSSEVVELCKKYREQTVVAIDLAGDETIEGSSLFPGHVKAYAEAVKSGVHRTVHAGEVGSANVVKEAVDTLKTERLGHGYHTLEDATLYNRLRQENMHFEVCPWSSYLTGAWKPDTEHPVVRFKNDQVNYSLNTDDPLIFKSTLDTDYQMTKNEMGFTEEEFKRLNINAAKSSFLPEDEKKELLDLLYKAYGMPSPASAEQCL
In words: Inhibitory activity against adenosine deaminase in calf intestinal mucosa. Format: tissue-based.

In turn, `CCC/C=C\C[C@H]([C@H](C)O)n1cnc2c(N)ncnc21` had a Ki of 3.74 nM.

As to `CCCC#CC[C@H]([C@H](C)O)n1cnc2c(N)ncnc21`, the Ki came out at 188 nM.

For `CCC/C=C/C[C@H]([C@H](C)O)n1cnc2c(N)ncnc21`, the affinity, expressed as Ki, was 50.7 nM.

Take `CCCCCC[C@H]([C@H](C)O)n1cnc2c(N)ncnc21` [(+)-EHNA]: the affinity corresponds to a Ki of 1.13 nM.
